The text below walks through data of patent US9579319B2 (Redx Pharma PLC, priority 2013, dated 2017).

Data set [1] in a line: Thermodynamic solubility with filtration. It counts as physicochemical. To be noted: aqueous buffer, thermodynamic from solid, pH 7.4 phosphate buffer (0.1 M), room temperature, filtered. As to the method:
Thermodynamic Solubility with Filtration
0.5 mg is weighed into a Mini Uniprep filter vial (Whatman, PVDF, 0.2 μm). 0.5 mL of pH 7.4 phosphate buffer (0.1 M) is dispensed and the vial is shaken at 600 rpm for 24 h at room temperature. At the end of this period, the solution is then filtered and an aliquot of the filtrate is used to create a tenfold dilution. Standards are prepared by serially diluting a 1250 μg/mL DMSO stock solution of the compound to 125 and 2.5 μg/mL, in Acetonitrile/Water (50:50, v/v). The concentration of the filtrate and tenfold dilution is measured by detection against the two calibration standards.

Data set [2] deals with Hedgehog signalling pathway. Briefly: Gli-reporter NIH3T3 luciferase assay (Hedgehog pathway inhibition). It counts as cell-based. Conditions: NIH3T3, Gli-reporter NIH-3T3 cells, recombinant mouse sonic hedgehog, 24 hours, luminescence. The gist of the method: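 Mouse NIH3T3 cells with Gli-responsive luciferase reporter, pre-treated 1 h with compound (top final concentration 1 μM, 0.1% DMSO) in 0.5% calf serum medium. Then stimulated with recombinant mouse sonic hedgehog for 24 h at 37° C. Luminescence read-out (OneGLO), triplicates; IC50 reported.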

≈ marks a conversion by molar mass, not a printed value. Read-outs that look alike come from different tables or passages of the source.

What is called solubility is how much of the substance goes into solution per volume. As usually defined, the IC50 is the point on the concentration scale where inhibition reaches its midpoint. For the compound `Cc1nc(CN(C)C2CCN(c3nnc(-c4ccnn4C)c(C)c3C)CC2)c(C(F)(F)F)o1` [Example 97, 1-[4,5-dimethyl-6-(2-methylpyrazol-3-yl)pyridazin-3-yl]-N-methyl-N-[[2-methyl-5-(trifluoromethyl)oxazol-4-yl]methyl]piperidin-4-amine], in data set [1], the solubility at 24 h came out at 1010 µg/mL (≈ 2180 µM). The IC50 in data set [2] (read-out: Gli luc IC50) was 10 to 200 nM.

`Cc1nc(CN(C)C2CCN(c3nnc(-c4ccnn4C)c4ccccc34)CC2)c(C(F)(F)F)o1` [Example 98, N-methyl-1-[4-(2-methylpyrazol-3-yl)phthalazin-1-yl]-N-[[2-methyl-5-(trifluoromethyl)oxazol-4-yl]methyl]piperidin-4-amine] showed a solubility at 24 h in data set [1] of 106 µg/mL (≈ 218 µM). Also, the IC50 in data set [2] (read-out: Gli luc IC50) lay in the range of 10 to 200 nM. Turning to `CN(C(=O)Nc1ccc(F)cc1C(F)(F)F)C1CCN(c2nnc(-c3ccnn3C)c3ccncc23)CC1` [Example 112, 3-[4-fluoro-2-(trifluoromethyl)phenyl]-1-methyl-1-[1-[1-(2-methylpyrazol-3-yl)pyrido[3,4-d]pyridazin-4-yl]-4-piperidyl]urea], the solubility at 24 h in data set [1] is 399 µg/mL (≈ 755 µM). The figures for the IC50 in data set [2] (read-out: Gli Luc nM (IC50)) and in data set [2] (read-out: Gli luc IC50) were 1.26 nM and below 10 nM, respectively. Compound `Cc1c(-c2ccnn2C)nnc(N2CCC(NC(=O)NC(C)(C)C)CC2)c1C` [Example 116, 1-tert-butyl-3-[1-[4,5-dimethyl-6-(2-methylpyrazol-3-yl)pyridazin-3-yl]-4-piperidyl]urea] displayed a solubility at 24 h in data set [1] of 1260 µg/mL (≈ 3270 µM). In data set [2] (read-out: Gli luc IC50), the IC50 was in the range of 10 to 200 nM. In the same order, the values of `Cn1nccc1-c1nnc(N2CCC(NCc3cnccc3C(F)(F)F)CC2)c2ccccc12` [Example 156, 1-[4-(2-methylpyrazol-3-yl)phthalazin-1-yl]-N-[[4-(trifluoromethyl)-3-pyridyl]methyl]piperidin-4-amine] are 321 µg/mL (≈ 687 µM) and below 10 nM. In the case of `CN(Cc1ccccc1OC(F)(F)F)C1CCN(c2nnc(-c3ccnn3C)c3ccccc23)CC1` [Example 162, N-methyl-1-[4-(2-methylpyrazol-3-yl)phthalazin-1-yl]-N-[[2-(trifluoromethoxy)phenyl]methyl]piperidin-4-amine], the IC50 in data set [2] (read-out: Gli luc IC50) is below 10 nM. Turning to `Cn1nccc1-c1nnc(N2CCC(NCc3cccc(F)c3F)CC2)c2ccccc12` [Example 163, N-[(2,3-difluorophenyl)methyl]-1-[4-(2-methylpyrazol-3-yl)phthalazin-1-yl]piperidin-4-amine], the half-maximal inhibitory concentration (IC50) in data set [2] (read-out: Gli luc IC50) lay within 10 to 200 nM. Regarding `Cn1nccc1-c1nnc(N2CCC(NCc3ccc(F)nc3C(F)(F)F)CC2)c2ccccc12` [Example 165, N-[[6-fluoro-2-(trifluoromethyl)-3-pyridyl]methyl]-1-[4-(2-methylpyrazol-3-yl)phthalazin-1-yl]piperidin-4-amine], the IC50 in data set [2] (read-out: Gli luc IC50) was in the range of 10 to 200 nM. Consider `COC(=O)c1ccc(CNC2CCN(c3nnc(-c4ccnn4C)c4ccccc34)CC2)nc1` [Example 166, methyl 6-[[[1-[4-(2-methylpyrazol-3-yl)phthalazin-1-yl]-4-piperidyl]amino]methyl]pyridine-3-carboxylate], for which the IC50 in data set [2] (read-out: Gli luc IC50) was above 200 nM.

With `Cn1nccc1-c1nnc(N2CCC(NC(=O)Nc3ccc(OC(F)(F)F)cc3)CC2)c2ccccc12` [Example 167, 1-[1-[4-(2-methylpyrazol-3-yl)phthalazin-1-yl]-4-piperidyl]-3-[4-(trifluoromethoxy)phenyl]urea], in data set [2] (read-out: Gli luc IC50), the IC50 was below 10 nM. On to `CN(Cc1cccc(C#N)c1)C1CCN(c2nnc(-c3ccnn3C)c3ccccc23)CC1` [Example 168, 3-[[methyl-[1-[4-(2-methylpyrazol-3-yl)phthalazin-1-yl]-4-piperidyl]amino]methyl]benzonitrile], for which the IC50 in data set [2] (read-out: Gli luc IC50) was in the range of 10 to 200 nM. Same read-out and setting: the figure for `CN(C(=O)Nc1ccc(F)cc1F)C1CCN(c2nnc(-c3ccnn3C)c3ccccc23)CC1` [Example 169, 3-(2,4-difluorophenyl)-1-methyl-1-[1-[4-(2-methylpyrazol-3-yl)phthalazin-1-yl]-4-piperidyl]urea] is below 10 nM. Turning to `Cc1ccccc1CNC1CCN(c2nnc(-c3ccnn3C)c3ccccc23)CC1` [Example 170, 1-[4-(2-methylpyrazol-3-yl)phthalazin-1-yl]-N-(o-tolylmethyl)piperidin-4-amine], in data set [1], the solubility at 24 h stood at 1190 µg/mL (≈ 2890 µM). For the same compound, in data set [2] (read-out: Gli luc IC50), the IC50 was in the range of 10 to 200 nM.

Take `Cc1c(-c2ccnn2C)nnc(N2CCC(N(C)Cc3ccncn3)CC2)c1C` [Example 171, 1-[4,5-dimethyl-6-(2-methylpyrazol-3-yl)pyridazin-3-yl]-N-methyl-N-(pyrimidin-4-ylmethyl)piperidin-4-amine]: in data set [2] (read-out: Gli luc IC50), the IC50 was above 1000 nM. Same read-out and setting: the same measure for `COc1cc(-c2nnc(N3CCC(NS(=O)(=O)c4ccc(F)cc4C(F)(F)F)CC3)c(C)c2C)ccn1` [Example 172, 4-fluoro-N-[1-[6-(2-methoxy-4-pyridyl)-4,5-dimethyl-pyridazin-3-yl]-4-piperidyl]-2-(trifluoromethyl)benzenesulfonamide]: above 1000 nM.
